Patent publication US11841369B2, “Method for improving quality of therapeutic cell through real-time glutathione measurement” (CELL2IN, INC., priority 2017, dated 2023)

Key:
hUC-MSCs [1] = experiment: CFU-F assay of hUC-MSCs; type: cell-based, human; conditions: ferrostatin-1 0.2, 1, 2, 4 μM or liproxstatin-1 0.1, 0.5, 1, 2 μM, 24 hours
Description: The inventors observed an effect of the material on stem cells by treating each stem cells with a material for enhancing a glutathione evaluation parameter. When hUC-MSCs were subcultured in a L-AA2G-containing medium, CFU-F, migration capacity, and an anti-inflammatory effect were observed. A CFU-F assay (n=3) was performed by treating hUC-MSCs with 125 or 250 μg/mL of AA2G for three days. As shown in FIGS. 16A and 16B, it was confirmed that, when AA2G was treated, CFU-F increased. In addition, as hUC-MSCs were treated with 125 or 250 μg/mL of AA2G for three days, PDGF-AA-induced migration capacity (n=3) was analyzed. As shown in FIGS. 17A and 17B, it was confirmed that the migration capacity was increased by AA2G treatment. In addition, the reduction in T cell proliferation, a reduction in T cell differentiation, and the promotion of Treg cell differentiation were observed by treating hUC-MSCs with 125 or 250 μg/mL of AA2G for three days. […] Meanwhile, hUC-MSCs were cultured with a glutathione precursor such as γ-glutamyl cysteine (GGC, 0.1, 0.25, and 0.5 mM). A CFU-F assay (n=3) was performed by treating hUC-MSCs with each concentration of GGC for 2 hours. […] In addition, SDF1α and PDGF-AA-induced migration capacities (n=3) were analyzed for hUC-MSCs without treatment with GGC, and SDF1α- and PDGF-AA-induced migration abilities (n=3) were analyzed by treating hUC-MSCs with the increasing concentrations of GGC. STI571 was used as a PDGFR kinase inhibitor. As shown in FIGS. 20A to 20C, it was confirmed that, according to an increase in GGC treatment concentration, SDF1α- and PDGF-AA-induced migration capacities were enhanced. A CFU-F assay (n=3) was performed by treating hUC-MSCs with 0.2, 1, 2, and 4 μM ferrostatin-1 and 0.1, 0.5, 1, and 2 μM liproxstatin-1 for 24 hours.

T cells = experiment: Anti-inflammatory effect of treated hUC-MSCs: T cell proliferation, T cell differentiation, Treg cell differentiation; type: cell-based
Description: The inventors observed an effect of the material on stem cells by treating each stem cells with a material for enhancing a glutathione evaluation parameter. When hUC-MSCs were subcultured in a L-AA2G-containing medium, CFU-F, migration capacity, and an anti-inflammatory effect were observed. A CFU-F assay (n=3) was performed by treating hUC-MSCs with 125 or 250 μg/mL of AA2G for three days. As shown in FIGS. 16A and 16B, it was confirmed that, when AA2G was treated, CFU-F increased. In addition, as hUC-MSCs were treated with 125 or 250 μg/mL of AA2G for three days, PDGF-AA-induced migration capacity (n=3) was analyzed. As shown in FIGS. 17A and 17B, it was confirmed that the migration capacity was increased by AA2G treatment. In addition, the reduction in T cell proliferation, a reduction in T cell differentiation, and the promotion of Treg cell differentiation were observed by treating hUC-MSCs with 125 or 250 μg/mL of AA2G for three days.
In addition, hUC-MSCs were cultured with ferrostatin-1 (0.2, 1, 2 and 4 μM) and liproxstatin-1 (0.1, 0.5, 1 and 2 μM), which control a glutathione level in cells by inhibiting lipid oxidation. […] Meanwhile, the hUC-MSCs were treated with 1 μM ferrostatin-1 for 24 hours, 0.2 mM GGC for 2 hours, and 2 mM GSH-EE for 2 hours. As a result, the reduction in T cell proliferation ability and the reduction in T cell differentiation capacity were observed, and promotion of Treg cell differentiation was observed.

hUC-MSCs [2] = experiment: Mitochondrial GSH (mGSH) distribution after RSL3, MitoFreSH-Tracer, flow cytometry and confocal imaging; type: cell-based, human
Description: After the cultured human umbilical cord-derived mesenchymal stem cells (hUC-MSCs) at passage 4, 7 or 15 were treated with various concentrations of RSL3 and stained with MitoFreSH, the distribution pattern of mitochondrial GSH (mGSH) in the cells was confirmed by histograms using flow cytometry and confocal imaging.
hUC-MSCs at passage 4, 7 or 15 were prepared, seeded at 70000 cells/well in a 6-well cell culture plate, and cultured at 37° C. for 24 hours. The medium used in the culture was prepared by adding 10% fetal bovine serum and 1× penicillin-streptomycin to α-MEM. […] The cells detached from the plate were transferred to an FACS tube and stored on ice, and a fluorescence level was measured using a flow cytometer.
hUC-MSCs at passage 4, 7 or 15 were prepared, seeded at 7000 cells/100 μl per well in a 96-well cell culture plate, and cultured at 37° C. for 24 hours. […] To remove MitoFreSH-Tracer from the medium before measurement, the medium was exchanged with fresh 10 mM HEPES-containing HBSS, and fluorescence images were measured using a confocal imaging system, Operetta.
A F510/F580 ratio referring to a GSH mean value in cells was calculated by measuring fluorescence values of F510 (fluorescence value when MitoFreSH-Tracer was bound with SH) and F580 (fluorescence value of MitoFreSH-Tracer, which was not bound with SH) in cells and dividing the F510 value by the F580 value. […]

human dermal fibroblasts = experiment: mGSH distribution after RSL3 in human dermal fibroblasts, confocal imaging; type: cell-based; conditions: as the subculture continued
Description: As described in the experiment for MSCs, human dermal fibroblasts subcultured several times were treated with RSL3 and the cells were stained with MitoFreSH-Tracer, and a ratio between cells maintaining mGSH and cells not maintaining mGSH was represented as a percentage through confocal imaging.

hUC-MSCs [3] = experiment: CD146 surface expression in mGSH^High and mGSH^Low cells after RSL3, flow cytometry; type: cell-based, human; conditions: P4 hUC-MSC, compared with mGSH level-maintaining group
Description: To confirm whether the stem cell function of cells in which an mGSH level decreased is deteriorated under lipid oxidative stress caused by RSL3 treatment, an expression level of CD146, which is a cell surface protein known to be highly expressed in stem cells of high quality according to conventional literature, was confirmed through flow cytometry.
The cells were stained by the same method as a method of measuring a mitochondria GSH level through the flow cytometry as described above, and detached from the plate using trypsin. The detached cells were treated with an antibody for flow cytometry with respect to CD146 to which a fluorescent material BUV395 was bound at 4° C. for 30 minutes, and washed with PBS. Using a flow cytometer, F510 and F580 fluorescence values for measuring a GSH level and a BUV395 fluorescence value for measuring CD146 expression were measured. Afterward, based on the point at which the histogram showing the F510/F580 distribution was divided into two peaks, the cells were divided into GSH^High cells (right peak) and GSH^Low cells (left peak) using FlowJo software, and a CD146-positive ratio of the corresponding cells is represented as a percentage (%).

[4] = hUC-MSCs treated with 1 μM ferrostatin-1 24 h, 0.2 mM GGC 2 h or 2 mM GSH-EE 2 h

Structure (SMILES)	CFU-F (hUC-MSCs [1])	anti-inflammatory effect of the hUC-MSCs (T cells; ferrostatin-1 or liproxstatin-1 treatment (FIGS. 27, 28A to 28C))	T cell differentiation capacity (T cells; [4])	T cell proliferation ability (T cells; [4])	Treg cell differentiation (T cells; [4])	effect of RSL3 on mGSH upon Ferrostatin-1 treatment (hUC-MSCs [2]; hUC-MSCs treated with RSL3 (FIG. 33))	proportion of cells in which mGSH decreases by treatment with RSL3 (human dermal fibroblasts)	mGSH levels (hUC-MSCs [2]; hUC-MSCs passage 4, 7 or 15, RSL3 0.1/0.5/1 μM, dependent on RSL3 concentration and passage number)	lowering of CD146-positive ratio in group in which mGSH level is lowered by RSL3 (hUC-MSCs [3])
CCOC(=O)c1ccc(NC2CCCCC2)c(N)c1 [ferrostatin-1]	improved	did not alter	reduction	reduction	promotion	disappeared	–	–	–
COC(=O)c1ccc([C@@H]2c3[nH]c4ccccc4c3C[C@@H](C(=O)OC)N2C(=O)CCl)cc1 [RSL3, 1S,3R-RAS-selective lethal 3]	–	–	–	–	–	–	increased	reduced	approximately 25%
